Results published in article PMC6368403, “Identification of a bilirubin receptor that may mediate a component of cholestatic itch” (eLife, 2019).
“And” between values parts separate entries of the source, which are not always exact repeats. Equal values may be shown once.

Experiments:
MRGPRA1 [1] = target: T1, MRGPRA1 (Mus musculus, UniProt Q91WW5); experiment: Ca2+ imaging and concentration-Ca2+ response (EC50) in HEK293 cells expressing MRGPRA1; format: cell-based; conditions: for Calcium response / activation of MRGPRA1-expressing cells: 50 µM bilirubin, 30 µM FMRF; for Ca2+ response (concentration-response curve): MRGPRA1, triplicate wells (Fig 2D)
T1 construct: expressed in transfected cells
T1 sequence (Q91WW5 1-304): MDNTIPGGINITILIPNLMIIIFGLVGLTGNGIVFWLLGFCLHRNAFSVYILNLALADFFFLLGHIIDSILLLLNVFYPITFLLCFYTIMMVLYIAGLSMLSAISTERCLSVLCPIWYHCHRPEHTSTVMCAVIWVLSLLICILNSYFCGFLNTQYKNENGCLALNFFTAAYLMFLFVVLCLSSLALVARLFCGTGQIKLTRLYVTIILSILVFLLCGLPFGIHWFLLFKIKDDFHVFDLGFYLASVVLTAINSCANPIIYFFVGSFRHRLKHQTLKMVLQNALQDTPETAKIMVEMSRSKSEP
Protocol: (§1) All cultured cells were maintained in DMEM supplemented with 10% FBS and 1% Penicillin/Streptomycin at 37°C, 5% CO2. All data included were generated from cells tested for mycoplasma and found to be negative. Cells were imaged in calcium imaging buffer (CIB; 10 mM HEPES, 1.2 mM NaHCO3, 130 mM NaCl, 3 mM KCl, 2.5 mM CaCl2, 0.6 mM MgCl2, 20 mM glucose, and 20 mM sucrose at pH 7.4 and 290–300 mOsm). To monitor changes in intracellular [Ca^2+] ([Ca^2+]i), cells were loaded with either Fura 2-AM (HEK293 cells) or Fluo 4-AM (DRG neurons and mast cells) for 30 min in the dark at 37°C in CIB just prior to imaging. With Fura 2-AM, emission at 510 nm was monitored from excitation at both 340 nm and 380 nm. With Fluo 4-AM, emission at 520 nm was monitored from excitation at 488 nm. Cells were identified as responding if the intracellular [Ca^2+] rose by either 50% compared to baseline or 50% compared to the [Ca^2+]i change assayed during addition of 50 mM KCl (neurons only). Damaged, detached, high-baseline, and motion-activated cells were excluded from analysis.
(§2) In initial screens, HEK293 cells stably expressing the murine G-protein alpha-subunit Gα15, a unique Gα protein that non-selectively couples a large variety of GPCRs to phospholipase C ^30, were plated on poly-D-lysine-coated coverslips and transiently transfected with constructs encoding the MRGRPR of interest. 12–24 hr later, cells were loaded with the Fura 2-AM. Unless otherwise specified, compounds were perfused into the imaging chamber for approximately thirty seconds after a baseline period was established. Response was then monitored at 5 s intervals for an additional 60 s.
(§3) HEK293 cells stably expressing either MRGPRA1, MRGPRX4, and MRGRPC11 were seeded in poly-D-lysine-coated 96-well plates at 10,000 cells/well. Cells were loaded with Fura 2–AM, washed twice, and maintained in CIB. Haem metabolites were freshly dissolved in DMSO in dim light and then diluted into a buffer comprised of 20 mM Tris and 150 mM NaCl at pH 8.8. Potential changes in pH were evaluated prior to each experiment. EC50 values were determined from dose-responses performed in triplicate, repeated 2–4 times. To determine potential antagonism by QWF against bilirubin, cells were treated with varying doses of QWF for 1 min in CIB prior to application of agonist.
(§4) HEK293 stable cell lines expressing GFP-tagged MRGPRA3, MRGPRC11, MRGPRD, MRGPRX1, and MRGPRX2 were generated in previously described reports ([Liu et al., 2009]; [Liu et al., 2012]; [McNeil et al., 2015]). Briefly, plasmids containing the receptor of interest were transfected into HEK cells using Lipofectamine 3000. After 3 days, cells were then selected using 0.5 mg/mL G418. After 3 weeks, monoclonal colonies were established and each the highest expressing clones were identified. For this study, Mrgpra1 and MRGPRX4 were inserted into pEGFP-N1 and transfected into HEK293 cells. MRGPR-positive cells were selected using 0.5 mg/mL G418 for three weeks, after which GFP-positive cells were sorted by FACS and monoclonally expanded. Two lines expressing similar levels of MRGPRA1 and MRGPRX4, as measured by GFP fluorescence, were selected for study.

MRGPRX4 = target: T2, MRGPRX4 (Homo sapiens, UniProt Q96LA9); experiment: Ca2+ imaging and concentration-Ca2+ response (EC50) in HEK293 cells expressing MRGPRX4; format: cell-based; conditions: for Ca2+ response (concentration-response curve): MRGPRX4, triplicate wells (Fig 2I)
T2 construct: expressed in transfected cells
T2 sequence (Q96LA9 whole entry): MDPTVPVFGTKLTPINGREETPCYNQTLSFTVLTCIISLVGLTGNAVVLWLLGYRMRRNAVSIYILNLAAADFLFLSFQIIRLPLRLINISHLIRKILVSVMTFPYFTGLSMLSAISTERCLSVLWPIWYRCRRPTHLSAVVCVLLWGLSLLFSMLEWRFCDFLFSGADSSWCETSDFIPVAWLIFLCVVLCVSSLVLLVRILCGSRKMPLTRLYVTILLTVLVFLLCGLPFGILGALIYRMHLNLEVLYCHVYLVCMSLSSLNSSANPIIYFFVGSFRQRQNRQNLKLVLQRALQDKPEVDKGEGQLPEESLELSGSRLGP
Protocol: as §1, §2, §3, §4

MRGPRA1 [2] = target: T1, MRGPRA1; experiment: Microscale thermophoresis binding to MRGPRA1; parameters: Transformed binding isotherm (mean of three experiments): unit not given here; conditions: for Transformed binding isotherm (mean of three experiments): MRGPRA1 (Fig 2E); for Binding to MRGPRA1: microscale thermophoresis
Protocol: Binding isotherms for MRGPRA1, MRGPRX4, and MRGRPC11 towards various ligands were determined by microscale thermophoresis with the NanoTemper monolith NT.115 instrument ([Duhr and Braun, 2006]). Ligands were pre-incubated with 10 µM of the GFP-tagged receptor of interest for 5 min at room temperature in binding buffer (20 mM Tris and 150 mM NaCl at pH 8.8). Receptors were crudely purified as a membrane fraction from cells stably expressing the receptor ([Vasavda et al., 2017]). Haem metabolites were freshly dissolved in 0.1 M NaOH in dim light and then diluted into assay buffer. Lyophilized BAM8-22 was dissolved in binding buffer. The pH of each ligand was evaluated prior to incubation with a receptor. Samples were loaded into NT.115 Hydrophobic-Treated Capillaries from NanoTemper. Microscale thermophoretic experiments were executed using 20% LED power and 15% MST power. KDs were calculated using the law of mass action with data from three independent experiments. Binding between bilirubin and receptors was evaluated purely thermophoretically, whereas binding between BAM8-22 and MRGPRC11 was evaluated by T-Jump. Samples with dramatic deviations in initial fluorescence were excluded.

Molecule | Calcium response / activation of MRGPRA1-expressing cells (MRGPRA1 [1]) | Calcium response / activation of MRGPRX4-expressing cells (MRGPRX4) | Transformed binding isotherm (mean of three experiments) (MRGPRA1 [2]; [Ligand] 1.221e-7 M) | Transformed binding isotherm (mean of three experiments) (MRGPRA1 [2]; [Ligand] 2.441e-7 M) | Transformed binding isotherm (mean of three experiments) (MRGPRA1 [2]; [Ligand] 4.883e-7 M) | Transformed binding isotherm (mean of three experiments) (MRGPRA1 [2]; [Ligand] 9.766e-7 M) | Transformed binding isotherm (mean of three experiments) (MRGPRA1 [2]; [Ligand] 1.9531e-6 M) | Transformed binding isotherm (mean of three experiments) (MRGPRA1 [2]; [Ligand] 3.9063e-6 M) | Transformed binding isotherm (mean of three experiments) (MRGPRA1 [2]; [Ligand] 7.8125e-6 M) | Transformed binding isotherm (mean of three experiments) (MRGPRA1 [2]; [Ligand] 1.5625e-5 M) | Transformed binding isotherm (mean of three experiments) (MRGPRA1 [2]; [Ligand] 3.125e-5 M) | Transformed binding isotherm (mean of three experiments) (MRGPRA1 [2]; [Ligand] 6.25e-5 M) | Transformed binding isotherm (mean of three experiments) (MRGPRA1 [2]; [Ligand] 0.000125 M) | Transformed binding isotherm (mean of three experiments) (MRGPRA1 [2]; [Ligand] 0.00025 M) | Transformed binding isotherm (mean of three experiments) (MRGPRA1 [2]; [Ligand] 0.0005 M) | Binding to MRGPRA1 (MRGPRA1 [2]) | other results
C=CC1=C(C)/C(=C/c2[nH]c(Cc3[nH]c(/C=C4\NC(=O)C(C)=C4C=C)c(C)c3CCC(=O)NCCS(=O)(=O)O)c(CCC(=O)NCCS(=O)(=O)O)c2C)NC1=O [conjugated bilirubin, bilirubin ditaurate] | activated MRGPRA1-expressing cells | activated MRGPRX4 | 8.864 | 12.0246 | -13.1442 | 10.2399 | -8.006 | -10.5584 | -9.562 | -5.789 | -4.24 | 37.7812 | 5.5559 | 6.134 | 25.273 | lower affinity than unconjugated bilirubin | Ca2+ response (concentration-response curve) (MRGPRA1 [1]; [Ligand] 7.8125e-6 M): 1.221 and 1.276 and 1.273; Ca2+ response (concentration-response curve) (MRGPRA1 [1]; [Ligand] 1.5625e-5 M): 1.253 and 1.283 and 1.252; Ca2+ response (concentration-response curve) (MRGPRA1 [1]; [Ligand] 3.125e-5 M): 1.222 and 1.225 and 1.221; Ca2+ response (concentration-response curve) (MRGPRA1 [1]; [Ligand] 6.25e-5 M): 1.19 and 1.186 and 1.177; Ca2+ response (concentration-response curve) (MRGPRA1 [1]; [Ligand] 0.000125 M): 1.212 and 1.254 and 1.214; Ca2+ response (concentration-response curve) (MRGPRA1 [1]; [Ligand] 0.00025 M): 1.3325 and 1.3437 and 1.301; Ca2+ response (concentration-response curve) (MRGPRA1 [1]; [Ligand] 0.0005 M): 1.4484 and 1.4326 and 1.424; Ca2+ response (concentration-response curve) (MRGPRA1 [1]; [Ligand] 0.001 M): 1.572 and 1.554 and 1.499; Ca2+ response (concentration-response curve) (MRGPRX4; [Ligand] 3.90625e-6 M): 1.434 and 1.4137 and 1.361; Ca2+ response (concentration-response curve) (MRGPRX4; [Ligand] 7.8125e-6 M): 1.454 and 1.384 and 1.354; Ca2+ response (concentration-response curve) (MRGPRX4; [Ligand] 1.5625e-5 M): 1.439 and 1.34 and 1.332; Ca2+ response (concentration-response curve) (MRGPRX4; [Ligand] 3.125e-5 M): 1.623 and 1.449 and 1.378; Ca2+ response (concentration-response curve) (MRGPRX4; [Ligand] 6.25e-5 M): 1.761 and 1.61 and 1.52; Ca2+ response (concentration-response curve) (MRGPRX4; [Ligand] 0.000125 M): 1.756 and 1.629 and 1.666; Ca2+ response (concentration-response curve) (MRGPRX4; [Ligand] 0.00025 M): 1.735 and 1.736 and 1.6528; Ca2+ response (concentration-response curve) (MRGPRX4; [Ligand] 0.0005 M): 1.775 and 1.779 and 1.74; Transformed binding isotherm (mean of three experiments) (MRGPRA1 [2]; [Ligand] 0.001 M): 43.2348
hemin | failed to activate MRGPRA1 | had no effect | 0 | 0 | 0 | 0 | 0 | 0 | 0 | 0 | 0 | 0 | 0 | 0 | 0 | did not bind | Transformed binding isotherm (mean of three experiments) (MRGPRA1 [2]; [Ligand] 3.05e-8 M): 0; Transformed binding isotherm (mean of three experiments) (MRGPRA1 [2]; [Ligand] 6.1e-8 M): 0
